Where two headings read alike, the source gives them in different places.
Legend:
[1] = Clinical plasma pharmacokinetic parameters of TKIs; format: in vivo, human; conditions: for Cmax,u: calculated unbound plasma concentration (Cmax x fu) from cited clinical parameters; for Ctrough,u: calculated unbound trough plasma concentration from cited clinical parameters
Source text: Table 2 Pharmacokinetic parameters and obtained IC50, Ki, and Kp,uu values of TKIs. | column: Cmax,u (μM) Ctrough,u (μM)

[2] = design: method as in earlier work; conditions: unbound fraction in plasma; 34-43 (per drug); cited from earlier work
[3] = system: OCT2 and MATE1; conditions: for Prediction of SCr increase, Cmax,u: based on Cmax,u (Kp,uu assumed 1), mean ± S.D. (n = 11 subjects' parameters from ref 10); for Prediction of SCr increase, Cmax,u · Kp,uu: based on Cmax,u with Kp,uu incorporated; for Prediction of SCr increase, Cmax,u · Kp,uu / Prediction of SCr increase, Ctrough,u / Prediction of SCr increase, Ctrough,u · Kp,uu: mean ± S.D. (n = 11); for Prediction of SCr increase, Ctrough,u: based on Ctrough,u (Kp,uu assumed 1); for Prediction of SCr increase, Ctrough,u · Kp,uu: based on Ctrough,u with Kp,uu incorporated
Source text: In this model, the intrinsic clearances of OCT2 and MATE1 were assumed to be equal. When MATE1 inhibition was predicted from the Cmax,u of drugs, Kp,uu was assumed to be 1.

[4] = Tissue accumulation (Kp,uu) of TKIs in rat kidney slices; format: in vitro ADME; conditions: male, Wistar, rat kidney slices (0.3 mm thick), pH 7.4, TKI 1 μM, 120 min, C/M ratio 37 °C / 4 °C, mean ± S.E.M. (n = 3 or 4)
Method: Male Wistar rats (180 ± 10 g body weight) were purchased from Japan SLC (Hamamatsu, Japan). Rats were housed three per cage with free access to commercial chow and tap water, and were maintained on a 12 h dark/light cycle in an air-controlled room (temperature, 24.0 ± 1 °C; humidity, 55 ± 5%).
Uptake study by rat kidney slices was carried out as described previously, with slight modifications. Whole kidneys of male rats were sliced (0.3 mm thick) with a microslicer (Zero 1; Dosaka EM, Kyoto, Japan). […] Three or four slices per rat, each weighing 5 to 20 mg, were randomly selected and pre-incubated in a 12-well plate with 2.0 ml/well of oxygenated transport buffer at 37 °C for 5 min. After pre-incubation, the kidney slices were placed in transport buffer containing TKIs to initiate the uptake reaction. After uptake at 37 °C for an appropriate time, each slice was rapidly removed from the transport buffer, washed twice in ice-cold transport buffer, blotted on filter paper and weighed. Non-specific adsorption of each substrate was estimated as the absorption on a slice incubated at 4 °C for 1 min. The tissue accumulation of TKIs was measured by liquid chromatography-tandem mass spectrometry (LC-MS/MS) as described below.
The unbound renal proximal tubule epithelial cell-to-medium concentration ratio (Kp,uu) based on the steady-state uptake at 37 °C and 4 °C was defined according to Eq. (4);4 Kp,uu=C/Mratioss,37 °C/C/Mratioss,4 °C
Kp,uu was calculated by dividing C/Mratioss,37 °C by the mean value of C/Mratioss,4 °C .

[5] = design: method as in earlier work; conditions: 34-43 (per drug), cited from earlier work; for t1/2: clinical half-life; for Cmax: maximum plasma concentration, clinical dosing: crizotinib 250 mg twice a day, gefitinib 250 mg, imatinib 400 mg, pazopanib 800 mg, sorafenib 400 mg, sunitinib 50 mg once a day; for Ctrough: trough plasma concentration, clinical dosing as in table footnote
[6] = patients treated with crizotinib, n = 38, 95% CI 21.3–[…]; cited from earlier work
[7] = molecular target: T1, human OCT2 (Homo sapiens, UniProt O15244); test: Inhibition of [14C]creatinine uptake by HEK293/OCT2 cells; format: cell-based; conditions: for IC50: 37 °C, pre/co-incubation, unit inferred, read-out: IC50 or Ki, OCT2
T1 construct: expressed in transfected cells; host or cells: HEK293
T1 sequence (O15244 1-555): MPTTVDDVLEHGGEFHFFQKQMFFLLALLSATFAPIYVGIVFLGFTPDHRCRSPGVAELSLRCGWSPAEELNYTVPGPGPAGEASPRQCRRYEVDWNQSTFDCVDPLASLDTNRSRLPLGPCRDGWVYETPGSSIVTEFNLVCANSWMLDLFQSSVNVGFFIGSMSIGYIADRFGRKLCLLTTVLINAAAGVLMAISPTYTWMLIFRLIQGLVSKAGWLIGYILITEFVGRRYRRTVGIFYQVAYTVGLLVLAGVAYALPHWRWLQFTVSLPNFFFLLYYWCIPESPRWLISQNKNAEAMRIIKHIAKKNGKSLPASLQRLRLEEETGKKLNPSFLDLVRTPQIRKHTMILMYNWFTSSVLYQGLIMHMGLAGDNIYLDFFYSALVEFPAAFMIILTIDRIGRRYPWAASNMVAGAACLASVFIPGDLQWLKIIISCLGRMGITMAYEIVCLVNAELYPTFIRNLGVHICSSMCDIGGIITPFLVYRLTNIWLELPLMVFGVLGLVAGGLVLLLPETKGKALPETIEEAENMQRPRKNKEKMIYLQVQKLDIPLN
Method: (§1) Cells were cultured in Dulbecco’s modified Eagle’s medium (DMEM) supplemented with 10% fetal bovine serum, 100 units/ml penicillin, 100 μg/ml streptomycin, 1 mM pyruvic acid, and 100 μg/ml zeocin for HEK293/OCT2 cells or 400 μg/mL G418 for HEK293/MATE1 and MDCKII/MATE1 cells at 37 °C in a humidified atmosphere of 5% CO2 in air.
The cells were incubated at 37 °C.
Experiments were conducted at least twice, and the results are shown as representative values in individual experiments. Uptake by transporter-expressing cells was expressed as the cell-to-medium (C/M) ratio (μL/mg protein), obtained by dividing the uptake amount by the concentration of substrate in the TM. MATE1- or OCT2-mediated uptake was obtained after subtraction of the uptake by mock cells.

[8] = molecular target: T2, MATE2K (Homo sapiens, UniProt Q86VL8); test: Uptake of MPP+ by HEK293/MATE2K and mock cells; format: cell-based
T2 construct: expressed in transfected cells; host or cells: HEK293
T2 sequence (Q86VL8 1-566 isoform Q86VL8-3): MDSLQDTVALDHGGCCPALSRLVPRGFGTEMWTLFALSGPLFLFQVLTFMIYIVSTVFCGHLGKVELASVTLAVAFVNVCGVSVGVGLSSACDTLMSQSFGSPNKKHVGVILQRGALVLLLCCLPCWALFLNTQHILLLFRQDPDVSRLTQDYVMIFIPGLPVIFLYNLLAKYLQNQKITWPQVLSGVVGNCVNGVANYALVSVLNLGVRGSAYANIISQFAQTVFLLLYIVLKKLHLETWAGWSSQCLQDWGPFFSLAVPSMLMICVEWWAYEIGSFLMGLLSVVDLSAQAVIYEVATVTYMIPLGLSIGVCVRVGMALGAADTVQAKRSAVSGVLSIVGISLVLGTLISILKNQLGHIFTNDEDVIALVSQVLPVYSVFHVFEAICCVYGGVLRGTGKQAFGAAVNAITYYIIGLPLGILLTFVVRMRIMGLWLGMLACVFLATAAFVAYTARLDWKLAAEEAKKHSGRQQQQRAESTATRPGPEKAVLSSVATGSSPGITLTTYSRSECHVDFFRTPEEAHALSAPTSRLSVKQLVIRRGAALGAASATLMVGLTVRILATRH
Method: The uptake experiment was conducted as described previously. HEK293 cells were plated at a density of 1.7 × 10^5 cells/cm^2 on 24-well plates and cultured for two days before uptake assay. The cells were pre-incubated with 0.5 ml of transport medium (TM) (125 mM NaCl, 4.8 mM KCl, 1.2 mM KH2PO4, 1.2 mM CaCl2, 1.2 mM MgSO4, 5.6 mM D-glucose, and 25 mM HEPES, pH 7.4) for an appropriate time at 37 °C. Cells for MATE1 assays were pre-incubated in TM containing 30 mM NH4Cl for 20 min to establish an outwardly directed H^+ gradient; this was done concomitantly with the pre-incubation with TKIs. […] Uptake was terminated by washing the cells three times with 0.5 ml of ice-cold TM, and the cells were solubilized in 0.25 ml of 0.01% (v/v) Triton-X. Radioactivity was measured with a liquid scintillation counter (Hitachi Aloka Medical, Ltd., Tokyo, Japan). […] Uptake was terminated by washing the cells three times with ice-cold TM, and intracellular [^14C]creatinine concentration was determined by the method described above.
Experiments were conducted at least twice, and the results are shown as representative values in individual experiments. Uptake by transporter-expressing cells was expressed as the cell-to-medium (C/M) ratio (μL/mg protein), obtained by dividing the uptake amount by the concentration of substrate in the TM. […]

[9] = molecular target: T3, human MATE1 (Homo sapiens, UniProt Q96FL8); test: Inhibition of [14C]creatinine uptake by HEK293/MATE1 cells; format: cell-based
T3 construct: expressed in transfected cells; host or cells: HEK293
T3 sequence (Q96FL8 1-570): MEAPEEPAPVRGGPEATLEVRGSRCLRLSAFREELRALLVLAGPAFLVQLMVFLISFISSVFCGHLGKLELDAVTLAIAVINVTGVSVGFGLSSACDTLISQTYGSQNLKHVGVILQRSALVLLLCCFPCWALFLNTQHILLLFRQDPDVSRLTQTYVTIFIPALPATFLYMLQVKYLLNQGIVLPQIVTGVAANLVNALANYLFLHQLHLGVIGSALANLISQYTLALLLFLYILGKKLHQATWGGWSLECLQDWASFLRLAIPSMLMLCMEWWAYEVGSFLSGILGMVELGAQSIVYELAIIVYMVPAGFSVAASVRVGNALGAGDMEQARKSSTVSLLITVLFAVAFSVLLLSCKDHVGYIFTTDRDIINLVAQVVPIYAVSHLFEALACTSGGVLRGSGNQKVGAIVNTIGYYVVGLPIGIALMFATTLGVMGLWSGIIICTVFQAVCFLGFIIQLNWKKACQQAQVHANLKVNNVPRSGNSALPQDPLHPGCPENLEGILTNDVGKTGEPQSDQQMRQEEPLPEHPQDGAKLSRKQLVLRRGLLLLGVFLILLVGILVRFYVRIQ
Method: as §1
The cells were incubated at 37 °C.
Uptake by transporter-expressing cells was expressed as the cell-to-medium (C/M) ratio (μL/mg protein), obtained by dividing the uptake amount by the concentration of substrate in the TM. MATE1- or OCT2-mediated uptake was obtained after subtraction of the uptake by mock cells.
Kinetic parameters for uptake were obtained using the Michaelis-Menten Eq. (2);2 v=Vmax×[C]/Km+[C] where v, Vmax, Km, and [C] are initial uptake rate, maximal uptake rate, Michaelis constant, and substrate concentration, respectively.

[10] = system: creatinine transporters; conditions: cited from earlier work

Row | SMILES | Cmax,u [1] | fu [2] | Prediction of SCr increase, Cmax,u [3] | Kp uu at 2 h, 1 μM [4] | t1/2 [5] | Cmax [5] | Prediction of SCr increase, Cmax,u · Kp,uu [3] | Prediction of SCr increase, Ctrough,u [3] | Prediction of SCr increase, Ctrough,u · Kp,uu [3] | Ctrough [5] | also measured
1 | COc1cc2ncnc(Nc3ccc(F)c(Cl)c3)c2cc1OCCCN1CCOCC1 [Gefitinib, gefitinib] | 93.6 nM | 0.09 | 2.47 ± 1.05% | 2.22 ± 0.05 | 23.8 h | 1040 nM |  |  |  |  | 
2 | C[C@@H](Oc1cc(-c2cnn(C3CCNCC3)c2)cnc1N)c1c(Cl)ccc(F)c1Cl [Crizotinib, crizotinib] | 84.8 nM | 0.093 | 14.5 ± 4.6% |  |  |  | 25.3 ± 8.8% | 11.7 ± 3.6% | 21.1 ± 7.1% | 708 nM | Ctrough,u [1]: 65.8 nM; Prediction of SCr increase, Cmax,u ([3]; listed as crizotinib): 14.5%; Prediction of SCr increase, Cmax,u · Kp,uu ([3]; listed as crizotinib): 25.3%; Predicted increase of SCr in the clinical context ([3]; summary statement of the prediction): more than 10%; Clinically reported eGFR reduction [6]: 23.9%
3 | Cc1ccc(NC(=O)c2ccc(CN3CCN(C)CC3)cc2)cc1Nc1nccc(-c2cccnc2)n1 [Imatinib, imatinib] |  |  |  | 2.39 ± 0.29 |  |  |  |  |  |  | 
4 | CNC(=O)c1cc(Oc2ccc(NC(=O)Nc3ccc(Cl)c(C(F)(F)F)c3)cc2)ccn1 [Sorafenib, sorafenib] |  | 0.0029 | 1.47 ± 0.90% | 2.76 ± 0.27 | 28.1 h | 14600 nM | 3.10 ± 1.17% |  |  |  | IC50 ([7]; [14C]creatinine 2.6 μM, 1 min): 40.8 ± 9.3 µM
5 | CC(=O)[O-].C[n+]1ccc(-c2ccccc2)cc1 [MPP^+, N-methyl-4-phenylpyridinium acetate] |  |  |  |  |  |  |  |  |  |  | Uptake of MPP+ by HEK293/MATE2K cells ([8]; HEK293/MATE2K cells): 19.1 μL/mg/1 min; Uptake of MPP+ by mock cells ([8]; mock cells): 5.76 μL/mg/1 min
6 | Cc1ccc(Nc2nccc(N(C)c3ccc4c(C)n(C)nc4c3)n2)cc1S(N)(=O)=O [Pazopanib, pazopanib] | 10.1 nM | 0.000106 | 1.16 ± 0.87% | 2.05 ± 0.14 | 30.9 h | 95100 nM | 1.86 ± 0.95% | 0.837 ± 0.842% | 1.22 ± 0.87% | 50600 nM | IC50 ([9]; [14C]creatinine 2.6 μM, 2 min, 37 °C, pre/co-incubation, unit inferred, read-out: IC50 or Ki, MATE1): 0.47 ± 0.032 µM; Ctrough/IC50 or Ki, MATE1 ([9]; ratio of trough (unbound) concentration to IC50 or Ki for MATE1): 0.0114; Inhibition of [14C]creatinine uptake by HEK293/OCT2 cells (in words) ([7]; pazopanib 1, 3, 10, 30 μM, [14C]creatinine 2.6 μM, 1 min): not by pazopanib; Ctrough/IC50 or Ki, OCT2 ([7]; ratio of trough (unbound) concentration to IC50 or Ki for OCT2): 0.0000386
7 | CCN(CC)CCNC(=O)c1c(C)[nH]c(/C=C2\C(=O)Nc3ccc(F)cc32)c1C [Sunitinib, sunitinib] | 6.8 nM |  | 1.65 ± 0.92% | 3.93 ± 0.15 | 40 to 60 h | 136 nM | 2.73 ± 1.10% | 1.19 ± 0.87% | 1.86 ± 0.95% | 82.9 nM | Ctrough,u [1]: 4.14 nM; IC50 ([7]; [14C]creatinine 2.6 μM, 1 min): 0.266 ± 0.03 µM
8 | COc1c(N2CC[C@@H](C3(N)CC3)C2)ccc2c(=O)c(C(=O)O)cn([C@@H]3C[C@@H]3F)c12 [DX-619] |  |  |  |  |  |  |  |  |  |  | Reduction of creatinine clearance [10]: up to 51.4%
